Data: patent US20060052459A1, “Antifungal medicaments comprising arylamidine derivatives” (priority 2002, published 2006)

Legend:
[1] = test system: Aspergillus fumigatus strain IP 864.64; assay: In vitro antifungal growth inhibition on microtitre plates (optical density 590 nm), compounds alone or as mixtures (Wadley method); type: cell-based; details: second study
Protocol: (§1) The following fungi were used for this study: Candida albicans strains IP 48.72 (ATCC 10231) and Aspergillus fumigatus strain IP 864.64 obtained from the Collection Nationale de Cultures de Microorganismes (CNCM) of the Institut Pasteur. The strains are cultured on Yeast Extract-Peptone-Dextrose (YEPD) agar medium comprising 0.5% yeast extract, 0.5% bactopeptone, 2% glucose and 2% agar at 30° C. and in the dark.
(§2) All these compounds were prepared in a DMSO solution at a final concentration of 100 mg/ml. The stock solutions are stored at −20° C. up to the time of use.
(§3) The trials are carried out in RPMI 1640 medium with no sodium bicarbonate, but with L-glutamine buffered with 0.165 mol per litre of 3-[N-morpholino]propanesulphonic acid (MOPS), enriched (<>) or otherwise (<>) with 2% glucose. The pH of this medium is adjusted to 7.0. The medium is sterilized by filtration (0.22 μm) and stored at 4° C. up to the time of use.
(§4) All the antifungal tests are carried out on microtitre plates. The initial suspensions of spores are prepared in a sterile solution containing 0.85% NaCl, supplemented with Tween 80 at 0.01%. These initial suspensions are then diluted in the culture medium (RPMI 1640 enriched or otherwise with 2% glucose) to a final concentration of 10^4 spores per ml. The measurements of viability of each inoculum are verified by subcultures of a volume of 300 μl on YEPD agar medium.
(§5) The antifungal compounds are tested in a range of concentrations ranging from 0.026 to 100 μg of active ingredient/ml. These antifungal compounds are then diluted in RPMI 1640 medium enriched or otherwise with 2% glucose. A final DMSO concentration of 0.2% is used throughout the measurements. Each trial is carried out on a series of dilutions of antifungal compounds, in duplicate. The antifungal dilutions (0.1 ml) and the fungal inoculum (0.1 ml) are added to each of the wells of the microtitre plate. The plates are then read with a spectrophotometer (ELX 800UV Bio-Tek Instruments, Inc) at a wavelength of 590 nm. The plates are read immediately after (t=0) and after 48 hours' incubation at 30° C. and in the dark. The optical density values obtained are correlated with fungal growth between the times t=0 and t=48 hours. The optical density values are used to calculate the percentage inhibition of growth for each concentration of antifungals by comparison with the control. The values are then used to plot a dose-response curve and the EC50 value is determined for each fungus and each compound with the aid of the Grafit 5.0® software (Erithacus software Ltd).
(§6) The method which was used to measure the type of interaction existing between the antifungal compounds in the form of mixtures is the Wadley method.
(§7) In the Wadley approach, the dose-response curve for each of the compounds A and B, and for the mixture AB, is constructed. The EC50 is calculated for each compound taken individually and for the mixture. If a and b are the absolute quantities of the compounds A and B in the mixture (a=1, b=1, a+b=2 under our conditions), the expected effective concentration (EC50exp) may be calculated in the following manner: EC50exp=(a+b)/[a/EC50A)+b/(EC50B)
(§8) The Wadley approach may be used to estimate the type of interaction existing between the fungal compounds, regardless of their concentration. Its reliability is not dependent on the percentage inhibition. The type of interaction between two compounds is given by the level of interaction (LI) which corresponds to the ratio between the expected effective concentration (EC50exp) and that observed (EC50obs) of the mixture. The nature of the interaction obtained by the Wadley formula is presented in Table 1 (see U. Gisi, Synergistic interaction in fungicide mixtures, 1996. Phytopathology 86, 1273-1279) below.
(§9) The experimental conditions are the same as previously described.

[2] = test system: Candida albicans strains IP 48.72 (ATCC 10231); assay: as above; type: cell-based; details: second study
Protocol: as §1, §2, §3, §4, §5, §6, §7, §8, §9

EC50 ([1]; Aspergillus fumigatus, IP864.64, 48 h, strain IP 864.64, RPMI 1640 medium enriched with 2% glucose, 48 hours at 30° C., read-out: EC50): 0.088 µg/mL | EC50 ([2]; Candida albicans, ATCC10231, 48 h, strain IP 48.72, RPMI 1640 medium enriched with 2% glucose, 48 hours at 30° C., read-out: EC50): 0.205 µg/mL
SMILES: CCN(C)C=Nc1cc(C)c(Oc2ccc(C#N)c(C(F)(F)F)c2)cc1C [Compound I.2, N-ethyl-N-methyl-N′-[4-(4-cyano-3-trifluoromethylphenoxy)-2,5-dimethylphenyl]imidoformamide]
efficacy in vitro compared with compounds I.1 and II.2 ([1]; enriched medium): twice higher | efficacy in vitro compared with compounds I.1 and II.1 ([2]; enriched medium): better efficacy
